Results on 4 compounds are retold here after US10703770B2, “Compositions and methods for the dissolution and depolymerization of lignin” (National Technology & Engineering Solutions of Sandia, LLC, priority 2016, dated 2020).

Molecules are shown by their SMILES. Values joined by “and” are separate entries in the source; they are usually repeats but may differ in a detail not shown here. Equal values may be shown once. “Also recorded” adds a separate entry of the source.

The conditions of data set [1]: 25° C.; cited from earlier work.
Data set [2] in a line: Solubilization of alkali lignin in solvents. The settings on record: 20 °C (room temperature), solvent 5 g.
From the text: Alkali lignin (average molecular weight of lignin obtained from Sigma-Aldrich reported as 60.0 kDa) with low sulfonate content was used as a technical lignin substrate for the rapid solubilization experiments.
Confocal microscopy (10× magnification) was used to observe the morphologies of lignin before and after solubilization and precipitation, and the results are shown in FIGS. 8D-8F.
For data set [3] the following is noted: reported (refs 24, 25); cited from earlier work.
The subject of a further data set is CTec2+HTec2 (9:1, v/v). In words: Tolerance of commercial enzyme cocktails to IL in saccharification. Format: biochemical. The protocol: FIG. 4C. Effects of some parameters on the sugar yield: IL concentration in hydrolysis. Normal operation conditions: pretreatment, 10 wt % SG loading, 90 wt % IL, 160° C., 0.5 h (3 h for eucalyptus); saccharification, 10 wt % IL, 20 mg protein/g SG, 50 ° C., 72 h.
As a result, the associated IL recycling and wastewater treatment costs create significant economic and process engineering challenges for the commercial scale-up of this technology. In the present process, commercial cocktails of CTec2+HTec2 (9:1, v/v) could tolerant about 10 wt % IL in saccharification process (FIG. 4C). […] [OAc] is tolerant to commercial cocktails not only in pH match, but also in its low toxic nature.
Generally, SSF requires compatible fermentation and saccharification conditions, with a similar pH, temperature and optimum substrate concentration. In a case of IL participating SSF, a compromise IL concentration for the two stages is an accessional requirement. […] [OAc] concentration of 10 wt %, however, increasing the [EOA] […] Thus, it would be interesting to see the performance of the wild yeast under different IL concentrations.
One-pot pretreatment, saccharification and fermentation: In a typical procedure, SG (100 mg) was mixed with ([EOA][OAc]) at a 10% biomass loading in a 15 mL capped glass pressure tube and pretreated in a convection oven at 160° C. for 0.5 h. […]

Data set [4] relates to Saccharomyces cerevisiae strain BY4741. The experiment in a line: Toxicity test of [EOA][OAc] on yeast growth. The data set is classed as cell-based. The protocol:
FIG. 5A. Toxicity test of [EOA][OAc]. Conditions: yeast strain: Saccharomyces cerevisiae strain BY4741, growth condition: in 24-well microplate with orbital-high intensity shaking/31° C./in IL solution (10 g/L glucose in each IL solutions), volume of the cell culture was 0.5 mL.
For toxicity screening, a wild type yeast strain BY4741 was technically used and it was immersed in various IL concentrations from 2.5 to 15 wt %.

Regarding `OCCO` [EG, ethylene glycol], in data set [1], the viscosity was 0.0162 N s/m^2. For the same compound, in data set [2], the “Solubility (wt %) of alkali lignin” value was > 30 wt % and ~31 wt %.
With `OCC(O)CO` [Glycerol], the viscosity in data set [1] is reported as 0.95 N s/m^2.
On to `CC1COC(=O)O1` (stereo not drawn) [PC, propylene carbonate, reference compound], for which, in data set [2], the “Solubility (wt %) of alkali lignin” value is reported as “Negligible solubility; also recorded: Trace”.
For the compound `CC(=O)O.NCCO` [[EOA][OAc], ethanolamine acetate], the “thermal decomposition temperature, Td” value in data set [3] was “above 200 °C”. Also, the “IL concentration tolerated by commercial cocktails in saccharification” value in the data set on CTec2+HTec2 (9:1, v/v) (CTec2+HTec2 (9:1, v/v), 50 °C, 72 h) is “about 10 wt %”. Besides, the “glucose yield at raised IL concentration in saccharification” value in the data set with CTec2+HTec2 (9:1, v/v) ([EOA][OAc] concentration over 10 wt %) is on record as “decreased glucose yield”. Besides, the yeast growth entry in data set [4] (5 wt % IL concentration) is given as “better yeast growth”. For the same compound, the yeast strain growth entry in data set [4] (IL concentrations from 2.5 to 15 wt %, 31 °C, 10 g/L glucose) was “better growth occurs in a lower IL titer below 10 wt %”.
